Data: patent US6642227B2, “Inhibitors of c-Jun N-terminal kinases (JNK) and other protein kinases” (Vertex Pharmaceuticals Incorporated, priority 2001, dated 2003)

Experiments:
human Src kinase = target: T1, human Src kinase (Homo sapiens, UniProt P12931); assay: Src inhibition assay (A: radioactivity-based or B: spectrophotometric coupled-enzyme assay); assay type: biochemical; conditions: assay A or B not specified; read-out: Src Activity (Ki class A-C)
T1 construct: full length recombinant human Src kinase; purchased Upstate Biotechnology 14-117; host or cells: baculovirus-infected cells
Method: The compounds were evaluated as inhibitors of human Src kinase using either a radioactivity-based assay or spectrophotometric assay.
The compounds were assayed as inhibitors of full length recombinant human Src kinase (from Upstate Biotechnology, cat. no. 14-117) expressed and purified from baculo viral cells. Src kinase activity was monitored by following the incorporation of ^33p from ATP into the tyrosine of a random poly Glu-Tyr polymer substrate of composition, Glu:Tyr=4:1 (Sigma, cat. no. P-0275). The following were the final concentrations of the assay components: 0.05 M HEPES, pH 7.6, 10 mM MgCl2, 2 mM DTT, 0.25 mg/ml BSA, 10 μM ATP (1-2 uCi ^33P-ATP per reaction), 5 mg/ml poly Glu-Tyr, and 1-2 units of recombinant human Src kinase. In a typical assay, all the reaction components with the exception of ATP were pre-mixed and aliquoted into assay plate wells.
Inhibitors dissolved in DMSO were added to the wells to give a final DMSO concentration of 2.5%. The assay plate was incubated at 30° C. for 10 min before initiating the reaction with ^33P-ATP. After 20 min of reaction, the reactions were quenched with 150 μl of 10% trichloroacetic acid (TCA) containing 20 mM Na3PO4. The quenched samples were then transferred to a 96-well filter plate (Whatman, UNI-Filter GF/F Glass Fiber Filter, cat no. 7700-3310) installed on a filter plate vacuum manifold. Filter plates were washed four times with 10% TCA containing 20 mM Na3PO4 and then 4 times with methanol. 200 μl of scintillation fluid was then added to each well. The plates were sealed and the amount of radioactivity associated with the filters was quantified on a TopCount scintillation counter. The radioactivity incorporated was plotted as a function of the inhibitor concentration. The data was fitted to a competitive inhibition kinetics model to get the Ki for the compound.
(§1) The ADP produced from ATP by the human recombinant Src kinase-catalyzed phosphorylation of poly Glu-Tyr substrate was quanitified using a coupled enzyme assay (Fox et al (1998) Protein Sci 7, 2249). In this assay one molecule of NADH is oxidised to NAD for every molecule of ADP produced in the kinase reaction. The disappearance of NADH can be conveniently followed at 340 nm.
(§2) The following were the final concentrations of the assay components: 0.025 M HEPES, pH 7.6, 10 mM MgCl2, 2 mM DTT, 0.25 mg/ml poly Glu-Tyr, and 25 nM of recombinant human Src kinase. Final concentrations of the components of the coupled enzyme system were 2.5 mM phosphoenolpyruvate, 200 μM NADH, 30 μg/ml pyruvate kinase and 10 μg/ml lactate dehydrogenase.
(§3) In a typical assay, all the reaction components with the exception of ATP were pre-mixed and aliquoted into assay plate wells. Inhibitors dissolved in DMSO were added to the wells to give a final DMSO concentration of 2.5%. The assay plate was incubated at 30 C. for 10 min before initiating the reaction with 100 μM ATP. The absorbance change at 340 nm with time, the rate of the reaction, was monitored on a molecular devices plate reader. The data of rate as a function of the inhibitor concentration was fitted to compettive inhibition kinetics model to get the Ki for the compound.

human Lck kinase = human Lck kinase (UniProt P06239); assay: Lck inhibition assay (A: radioactivity-based or B: spectrophotometric coupled-enzyme assay); assay type: biochemical; conditions: read-out: Lck Activity (Ki rating)
Method: The compounds were evaluated as inhibitors of human Lck kinase using either a radioactivity-based assay or spectrophotometric assay.
The compounds were assayed as inhibitors of full length bovine thymus Lck kinase (from Upstate Biotechnology, cat. no. 14-106) expressed and purified from baculo viral cells. Lck kinase activity was monitored by following the incorporation of ^33p from ATP into the tyrosine of a random poly Glu-Tyr polymer substrate of composition, Glu:Tyr=4:1 (Sigma, cat. no. P-0275). The following were the final concentrations of the assay components: 0.025 M HEPES, pH 7.6, 10 mM MgCl2, 2 mM DTT, 0.25 mg/ml BSA, 10 μM ATP (1-2 μCi ^33P-ATP per reaction), 5 mg/ml poly Glu-Tyr, and 1-2 units of recombinant human […] kinase. In a typical assay, all the reaction components with the exception of ATP were pre-mixed and aliquoted into assay plate wells. Inhibitors dissolved in DMSO were added to the wells to give a final DMSO concentration of 2.5%. The assay plate was incubated at 30 C. for 10 min before initiating the reaction with ^33P-ATP. After 20 min of reaction, the reactions were quenched with 150 μl of 10% trichloroacetic acid (TCA) containing 20 mM Na3PO4. The quenched samples were then transferred to a 96-well filter plate (Whatman, UNI-Filter GF/F Glass Fiber Filter, cat no. 7700-3310) installed on a filter plate vacuum manifold. Filter plates were washed four times with 10% TCA containing 20 mM Na3PO4 and then 4 times with methanol. 200 μl of scintillation fluid was then added to each well. The plates were sealed and the amount of radioactivity associated with the filters was quantified on a TopCount scintillation counter. The radioactivity incorporated was plotted as a function of the inhibitor concentration. The data was fitted to a competitive inhibition kinetics model to get the Ki for the compound.
as §1, with “Lck” for “Src”
as §2, with “DTT, 5” for “DTT, 0.25”, “and 50” for “and 25”, “human Lck” for “human Src”
as §3, with “30°” for “30”, “150” for “100”, “competitive” for “compettive”

T1 sequence (P12931 whole entry): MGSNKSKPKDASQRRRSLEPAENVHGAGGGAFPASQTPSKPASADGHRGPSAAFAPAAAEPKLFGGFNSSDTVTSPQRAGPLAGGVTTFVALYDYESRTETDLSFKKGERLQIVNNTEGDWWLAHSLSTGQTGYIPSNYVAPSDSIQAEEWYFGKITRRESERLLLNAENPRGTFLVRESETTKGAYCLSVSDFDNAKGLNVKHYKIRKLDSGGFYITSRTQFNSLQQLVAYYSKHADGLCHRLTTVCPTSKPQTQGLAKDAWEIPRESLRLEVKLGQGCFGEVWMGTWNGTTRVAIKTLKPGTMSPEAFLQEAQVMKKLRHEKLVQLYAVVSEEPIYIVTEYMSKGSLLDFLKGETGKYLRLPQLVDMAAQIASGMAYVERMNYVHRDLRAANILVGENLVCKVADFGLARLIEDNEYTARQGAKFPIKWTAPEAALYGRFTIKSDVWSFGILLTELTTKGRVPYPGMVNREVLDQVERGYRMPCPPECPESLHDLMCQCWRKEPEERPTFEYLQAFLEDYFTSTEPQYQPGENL

Compound | Ki (human Src kinase) | Ki (human Lck kinase)
N#Cc1c(O)sc(-c2ccnc(Nc3cccc(OCc4ccccc4)c3)n2)c1-c1ccccc1 [IIa-42, 5-[2-(3-Benzyloxy-phenylamino)-pyrimidin-4-yl]-2-hydroxy-4-phenyl-thiophene-3-carbonitrile] | < 100 nM | < 100 nM
CCNc1sc(-c2ccnc(Nc3cccc(OC)c3)n2)c(-c2ccccc2)c1C(=O)OCC [IIa-90, 2-Ethylamino-5-[2-(3-methoxy-phenylamino)-pyrimidin-4-yl]-4-phenyl-thiophene-3-carboxylic acid ethyl ester] | > 1000 nM | 100 to 1000 nM
COCCNCCCOc1cccc(Nc2ncc(C)c(-c3sc(SC)c(C#N)c3-c3cccnc3)n2)c1 [VI-20] | < 100 nM | < 100 nM
CSc1sc(-c2nc(Nc3cccc(OCCCN4CCC[C@H]4CO)c3)ncc2C)c(-c2cccnc2)c1C#N [VI-24] | < 100 nM | < 100 nM
CSc1sc(-c2nc(Nc3cccc(OCCCN4CCOCC4)c3)ncc2C)c(-c2cccnc2)c1C#N [VI-117] | 100 to 1000 nM | 100 to 1000 nM
CSc1sc(-c2nc(Nc3cccc(OCCCN4CCNCC4)c3)ncc2C)c(-c2cccnc2)c1C#N [VI-118] | 100 to 1000 nM | < 100 nM
CSc1sc(-c2nc(Nc3cccc(OCCNCCO)c3)ncc2C)c(-c2cccnc2)c1C#N [VI-119] | 100 to 1000 nM | < 100 nM
CSc1sc(-c2nc(Nc3cccc(OCCN4CCC(CO)CC4)c3)ncc2C)c(-c2cccnc2)c1C#N [VI-120] | < 100 nM | < 100 nM
CSc1sc(-c2ccnc(Nc3cccc(NC(=O)CCCNC(C)=O)c3)n2)c(-c2cccnc2)c1C#N [VI-130] | < 100 nM | < 100 nM
CSc1sc(-c2ccnc(Nc3cccc(OCCCNCCO)c3)n2)c(-c2cccc(OCc3ccccc3)c2)c1C#N [VI-132] | 100 to 1000 nM | < 100 nM
CSc1sc(-c2ccnc(Nc3cccc(OCCCNCCCO)c3)n2)c(-c2cccc(OCc3ccccc3)c2)c1C#N [VI-133] | < 100 nM | < 100 nM
CSc1sc(-c2ccnc(Nc3cccc(OCCCNCCO)c3)n2)c(-c2cccc(O)c2)c1C#N [VI-134] | < 100 nM | < 100 nM
CSc1sc(-c2ccnc(Nc3cccc(OCCCNCCCO)c3)n2)c(-c2cccc(O)c2)c1C#N [VI-135] | < 100 nM | < 100 nM
CCCCS(=O)(=O)Nc1cccc(Nc2nccc(-c3sc(SC)c(C#N)c3-c3cccnc3)n2)c1 [VI-141] | < 100 nM | < 100 nM
